# Values quoted from earlier work in patent US20030027804A1, “Therapeutic combinations for the treatment of hormone deficiencies” (priority 2001, published 2003).
# How the values were obtained:
# [1] = oral, sublingual or buccal 17-alkylated androgens
# [2] = tested on: sex hormone binding globulin (SHBG), albumin; details: circulating in the blood
# [3] = target: T1, sex hormone binding globulin (SHBG), albumin (Homo sapiens, UniProt P04278); details: in men
# T1 sequence (P04278 30-402): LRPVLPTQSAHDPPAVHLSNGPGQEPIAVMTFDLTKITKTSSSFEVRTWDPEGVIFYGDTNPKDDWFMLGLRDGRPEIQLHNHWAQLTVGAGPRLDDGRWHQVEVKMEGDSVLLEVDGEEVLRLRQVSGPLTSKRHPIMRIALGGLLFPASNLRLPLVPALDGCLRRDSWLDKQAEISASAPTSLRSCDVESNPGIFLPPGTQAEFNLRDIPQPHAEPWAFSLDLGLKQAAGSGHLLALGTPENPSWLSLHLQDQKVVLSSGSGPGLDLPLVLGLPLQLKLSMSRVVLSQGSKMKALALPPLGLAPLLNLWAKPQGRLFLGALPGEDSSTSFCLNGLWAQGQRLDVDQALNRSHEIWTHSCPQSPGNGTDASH
# [4] = target: sex hormone binding globulin (SHBG), albumin (Homo sapiens, UniProt P02768); details: in men
# [5] = oral
# [6] = in vivo
# sex hormone binding globulin (SHBG), albumin (Homo sapiens, UniProt P02768), sequence (P02768 25-609): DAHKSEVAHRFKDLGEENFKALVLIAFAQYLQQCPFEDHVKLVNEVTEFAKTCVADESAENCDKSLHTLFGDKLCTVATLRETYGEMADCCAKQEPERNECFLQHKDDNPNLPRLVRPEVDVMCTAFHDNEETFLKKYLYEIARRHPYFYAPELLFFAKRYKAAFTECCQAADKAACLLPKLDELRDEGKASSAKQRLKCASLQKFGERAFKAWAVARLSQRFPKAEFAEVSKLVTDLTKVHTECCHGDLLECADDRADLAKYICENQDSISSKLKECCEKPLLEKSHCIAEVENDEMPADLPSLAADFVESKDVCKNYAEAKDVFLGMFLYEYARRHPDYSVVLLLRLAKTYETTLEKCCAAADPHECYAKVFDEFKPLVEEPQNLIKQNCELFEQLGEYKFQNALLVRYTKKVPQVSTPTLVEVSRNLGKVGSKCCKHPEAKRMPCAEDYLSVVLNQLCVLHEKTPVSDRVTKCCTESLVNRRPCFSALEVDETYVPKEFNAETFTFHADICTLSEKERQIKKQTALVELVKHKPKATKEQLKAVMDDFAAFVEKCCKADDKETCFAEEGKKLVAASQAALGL
structure (smiles),measurement,setting,value
C[C@]1(O)CC[C@H]2[C@@H]3CCC4=CC(=O)CC[C@]4(C)[C@@]3(F)[C@@H](O)C[C@@]21C [fluoxymesterone],liver toxicity,[1],associated with liver toxicity
C[C@]12CC[C@H]3[C@@H](CCC4=CC(=O)CC[C@@]43C)[C@@H]1CC[C@@H]2O [testosterone],testosterone in blood bound to protein,[2],98%
same,share of binding to high-affinity SHBG,[3],approximately 40%
same,share bound weakly to albumin,[4],60%
same,orally administered testosterone cleared by the liver in the first pass,[5],about 44%
"C[C@]12CC[C@@H]3c4ccc(O)cc4CC[C@H]3[C@@H]1CC[C@@H]2O [estradiol, 1,3,5(10)-Estratriene-3,17 beta-diol]",serum levels of estradiol required for clinical efficacy,[6],40 to 60 pg/mL
"C[C@]12CCC(=O)C=C1CC[C@@H]1[C@@H]2CC[C@@]2(C)[C@H]1CC[C@]2(C)O [methyl testosterone, 17 alpha-methyl-testosterone]",liver toxicity,[1],associated with liver toxicity
